Results on 6 molecules are retold here after patent US5137914A, “Sulfonylamino substituted bicyclo [2.2.1]heptane hydroxamic acid derivatives useful as pharmaceuticals” (Shionogi & Co., Ltd., priority 1990, dated 1992).

pEC50, pIC50: −log10 of the molar value.

For data set [1], the system named is rat washed platelets (thromboxane A2-receptor antagonistic activity). Put plainly: Inhibitory Effect on Platelet Aggregation in Rat (washed platelets, collagen-induced, in vitro). Format: cell-based, rat (Sprague-Dowley). As to conditions: 0.05 h, collagen inducer, 37° C., 3 minutes after inducer, Compounds Ia and Ib used as their sodium salts, read-out: Inhibition for Platelet Aggregation IC50. The method, then:
(§1) From the abdominal artery of a male rat (Sprague-Dowley, 7 weeks old) was collected 10 ml of blood with a plastic syringe containing 1.5 ml of ACD (85 mM of sodium citrate, 70 mM of citric acid, 110 mM of glucose) and 20 μg of prostaglandin E1. The blood was placed in a plastic test tube, shaken moderately turning and centrifuged for 10 minutes at 160×g to give platelet rich plasma (PRP). To the prepared PRP was added apyrase (25 μg/ml) and the mixture was layered on 40% bovine serum albumin. The resulting mixture was centrifuged at 1200×g for 25 minutes. The suspension of the prepared platelet pellets in a small amount of a buffer (137 mM of NaCl, 2.7 mM of KCl, 1.0 mM MgCl2, 3.8 mM of NaH2 PO4, 3.8 mM of Hepes, 5.6 mM of glucose, 0.035% of bovine serum albumin, pH 7.35) was applied on 10 ml of Sepharose 2B column and eluted with such a buffer to prepare washed platelets.
(§2) The platelet aggregation reaction was measured by the aggregometer (NKK HEMA TRACER 1 MODEL PAT-6A.6M, Nikkou Bioscience).
In a measuring curvette was placed 245 μl of the washed platelets which concentration was adjusted to […] and set in the aggregometer. The adjusted washed platelets were stirred (1000 rpm) at 37° C. and 3.8 μl of 0.1M CaCl2 was added thereto. One minute later, 0.5 μl of a solution of a test compound in dimethylsulfoxide was added and 2 minutes later, 1 μl of collagen (Collagen reagent Horm®, HORMON-CHEMIE Munchen GMBH, final concentration […]) was added as an inducer for platelet aggregation. Platelet aggregation was monitored in terms of the increase and decrease in light transmission.
Concentration of 50% inhibition for platelet aggregation was calculated from the rate of aggregation. (The rate corresponds to light transmission of a sample which was measured at 3 minutes after adding the inducer for platelet aggregation, provided that light transmissions of the washed platelets and the buffer samples are taken as 0% and 100%, respectively.)

The test system of data set [2] is mice. Description: Respiration inhibitory activity on intravenous injection to mice (index of partial agonistic activity). As to conditions: intravenously injected to mice. Format: in vivo.
The test system of data set [3] is rat platelet. Description: Partial agonistic activity (activity to induce the shape change in rat platelet). Format: cell-based. As to conditions: decrease in light transmission, rat washed platelets, 0.1M CaCl2, read-out: ED50 of partial agonistic activity (shape change). The method, then: as §1, §2
Furthermore, partial agonistic activity (activity to induce the shape change in rat platelet) was determined according to the method used for the reaction of platelet aggregation. To the washed platelets was added 0.1M CaCl2 aqueous solution and 1 minute later, the decrease in light transmission caused by the test compounds was determined to estimate the activity.

Take `O=C(CCC/C=C\C[C@H]1[C@@H]2CC[C@@H](C2)[C@@H]1NS(=O)(=O)c1ccccc1)NO` [Ia, (1R,2S,3S,4S)-(5Z)-7-(3-phenylsulfonyl-aminobicyclo[2.2.1]hept-2-yl)-5-heptenohydroxamic acid]: the pIC50 (as a rule, the negative decadic logarithm of the IC50, by convention in mol/L) in data set [1] was 7.92. Further, the “partial agonistic activity by determination of respiration inhibitory activity” value in data set [2] is “substantially no partial agonistic activity”.
Turning to `O=C(CCC/C=C\C[C@H]1[C@@H]2CC[C@@H](C2)[C@@H]1NS(=O)(=O)c1ccc(O)cc1)NO` [Ib, (1R,2S,3S,4S)-(5Z)-7-[3-(4-hydroxyphenylsulfonylamino)bicyclo[2.2.1]hept-2-yl]-5-heptenohydroxamic acid], in data set [1], the pIC50 was 8.00.
On the same count and under the same terms, the same measure for `O=C(CCC/C=C\[C@@H]1[C@H]2CC[C@H](C2)[C@H]1CNS(=O)(=O)c1ccc(Br)cc1)NO` [Ic, (1S, 2S, 3R, 4R)-(5Z)-6-[3-(4-bromophenylsulfonylaminomethyl)bicyclo[2.2.1]hept-2-yl]-5-hexenohydroxamic acid]: 7.70; for `CONC(=O)CCC/C=C\C[C@H]1[C@@H]2CC[C@@H](C2)[C@@H]1NS(=O)(=O)c1ccccc1` [Ie, (1R, 2S, 3S, 4S)-(5Z)-0-methyl-7-[3-phenylsulfonylaminobicyclo[2.2.1]hept-2-yl]-5-heptenohydroxamic acid]: 7.22.
The same measure, in the same setting: the same measure for `CN(O)C(=O)CCC/C=C\C[C@H]1[C@@H]2CC[C@@H](C2)[C@@H]1NS(=O)(=O)c1ccccc1` [If, (1R, 2S, 3S, 4S)-(5Z) -N-methyl-7-(3-phenylsulfonylaminobicyclo[2.2.1]hept-2-yl)-5-heptenohydroxamic acid]: 7.70.
As for `Cc1ccc(S(=O)(=O)N[C@H]2[C@H]3CC[C@H](C3)[C@@H]2C/C=C\CCCC(=O)O)cc1` [Rf. Compd., reference compound], in data set [1], the pIC50 was 8.70. Besides, the pEC50 in data set [3] was 9.00.
